Data set [1] is described as follows: Fat emulsifying capacity test. To be noted: 75% water, 24.3% fat, 0.7% emulsifier (3% of fat), stirred. Type of data set: physicochemical. The procedure:
In order to confirm emulsifying capacity of sodiumstearoyl-2-lactylate(hereinafter, referred to as “SSL”) of the present invention, 75% water, 24.3% fat and 0.7% SSL (3% of the amount of fat used) were added and stirred. POE (20)-glyceride, mono-glyceride and lecithin were used as comparative examples.

The nature of data set [2]: Measurement of serum biochemical index. Also noted: species or system ICR rats. Conditions: rat, in vivo. The protocol:
Feed for animal tests purchased from Shin Chon Feed Co., Ltd, were prepared and various additives were added thereto to obtain a molded animal feed with a predetermined size.
4-week old male ICR rats with a weight of […] were obtained from the laboratory animal center of Seoul National University, were divided into five groups (n=12) and maintained at a temperature of 23±2° C. and a variety of specific animal feeds were administered thereto. At this time, animals of each group were treated with the following chemicals: (percentage (%) means % by weight) • Control Group: animal feed+soybean oil 5% • Experimental Group: animal feed+soybean oil 5%+SSL 0.1% (HLB 20) • Comparative Example 1: animal feed+soybean oil 5%+lecithin 0.1% (HLB 4) • Comparative Example 2: animal feed+soybean oil 5%+glycerin monocaprate 0.1% (HLB 7) • Comparative Example 3: animal feed+soybean oil 5%+POE (20) sorbitan monolaurate 0.1% (HLB 16)
At 15 hours after the final weight of the test animals was measured (25 days), blood was collected from supraorbital […] blood vessel plexus of the rats using a capillary tube, serum was separated, and the following biochemical indexes were measured using a kit. […]

The nature of data set [3]: Fat digestion percentage and ME with SSL in animal feed. Type of data set: in vivo. To be noted: 0.05% by weight of SSL in animal feed. An excerpt:
The use of SSL enables improvement in digestion and absorption efficiency of fats, growth promotion, improvement of qualities, and an increase in production yield. From the results of preferred experimental examples, it can be seen that, when 0.05% by weight of SSL is used, fat digestion percentage is increased to about 5 to 10% and ME is increased to about 100 kcal/kg.

As to POE (20)-glyceride, in data set [1], the “emulsifying capacity (appearance after stirring)” value (“emulsifying capacity” below) is reported as “layer separation”. Turning to `CCCCCCCCCCCCCCCCCC(=O)OC(C)C(=O)OC(C)C(=O)[O-].[Na+]` (centres unmarked) [SSL, sodium stearoyl-2-lactylate], in data set [1], the “emulsifying capacity” value was “homogeneous dispersion”. For the same molecule, the “serum GPT and GOT versus control” value in data set [2] was “considerable improvement in serum GPT and GOT”. Further, in data set [3], the ME increase entry is “about 100 kcal/kg”. As to mono-glyceride, in data set [1], the “emulsifying capacity” value is “no emulsification”.

(Values after patent US20120004304A1, “BILE SALT ADJUVANT FOR ANIMALS FOR IMPROVING FAT UTILIZATION EFFICIENCY IN THE BODIES OF ANIMALS, AND ANIMAL FEED COMPRISING SAME” (KIMIN INC., priority 2009, published 2012).)
